# Experiments:
# MDA-MB-231 = test: SRB anti-proliferative assay; type: cell-based; settings: Homo sapiens; MDA-MB-231, SRB, mean ± SE of 3
# Procedure: (§1) All the newly prepared target conjugates (7, 8a–c, 9 and 10a–e) were investigated for the prospective growth inhibitory actions against three different cancer cell lines viz.; A-549, MDA-MB-231, and HCT-116, using the sulforhodamine B colorimetric (SRB) assay. Staurosporine, a clinically used antitumor drug, was co-assayed as a reference agent for the experiment.
# (§2) Examination of the cytotoxic activity for the target conjugates was carried out in accordance with the SRB colorimetric assay protocol, as described previously.
# (§3) In vitro anti-proliferative activity assay
# (§4) Cells at a concentration of 0.50 x
# (§5) Sulfo-Rhodamine-B stain (SRB) assay.
# (§6) cell to the wall of the plate.
# (§7) wells were prepared for each individual dose).
# (§8) Unbound dye was removed by four
# HCT-116 = test: SRB anti-proliferative assay; type: cell-based; settings: Homo sapiens; HCT-116, SRB, mean ± SE of 3
# Procedure: as §1, §2, §3, §4, §5, §6, §7, §8
# A-549 = test: SRB anti-proliferative assay; type: cell-based; settings: Homo sapiens, A549; A-549, SRB, mean ± SE of 3
# Procedure: Staurosporine, a clinically used antitumor drug, was co-assayed as a reference agent for the experiment.
# as §2, §3, §4, §5, §6, §7, §8
# CDK1 = tested on: CDK1; design: method as in PMID 11439342; settings: CDK1 ref 4; cited from earlier work
# CDK5 = tested on: CDK5; design: method as in PMID 11439342; settings: CDK5 ref 4; cited from earlier work
# CDK2 = CDK2 (Homo sapiens, UniProt P24941); settings: CDK2 ref 4; cited from earlier work
SMILES,IC50 (MDA-MB-231) [µM],IC50 (HCT-116) [µM],IC50 (A-549) [µM],IC50 (CDK1) [µM],IC50 (CDK5) [µM],IC50 (CDK2) [µM]
CCn1cc(C=NN=C2C(=O)Nc3ccc(Cl)cc32)c2ccccc21 [Compound 7],27.6 ± 1.76,19.7 ± 1.28,50 ± 3.37,–,–,–
C=CCn1cc(C=NN=C2C(=O)Nc3ccc(F)cc32)c2ccccc21 [Compound 10b],54 ± 4.17,36.3 ± 2.35,59.9 ± 3.58,–,–,–
C=CCn1cc(/C=N/N=C2\C(=O)Nc3ccc(OC(F)(F)F)cc32)c2ccccc21 [Compound 10e],51.8 ± 3.77,37.4 ± 2.06,40.2 ± 1.88,–,–,–
"COc1cccc2c1C(=O)c1c(O)c3c(c(O)c1C2=O)C[C@@](O)(C(=O)CO)C[C@@H]3O[C@H]1C[C@H](N)[C@H](O)[C@H](C)O1 [Dox., doxorubicin, reference compound]",4.5 ± 0.29,3.7 ± 0.24,2.3 ± 0.17,–,–,–
O=C1Nc2ccccc2/C1=C1/Nc2ccccc2C1=NO [Indirubin-3′-oxime],–,–,–,0.18,0.25,0.5

# Source: publication PMC7717600, “Novel [(N-alkyl-3-indolylmethylene)hydrazono]oxindoles arrest cell cycle and induce cell apoptosis by inhibiting CDK2 and Bcl-2: synthesis, biological evaluation and in silico studies” (Journal of Enzyme Inhibition and Medicinal Chemistry, 2020)
